Data on 73 compounds can be found in PubChem BioAssay AID652247 (Sanford-Burnham Center for Chemical Genomics, 2013).

Calls of active or inactive are those of the source. How the calls were made is not given here.

This assay deals with NEDD8-conjugating enzyme Ubc12 (Homo sapiens) + NEDD8-activating enzyme E1 regulatory subunit (Homo sapiens) (UniProt P61081+Q13564). Nature of the assay: inhibitors of CUL1 neddylation, potency, dose response, biochemical, TR-FRET (AID 652247). The note with it: in vitro CUL1 neddylation. On the technique in general: TR-FRET usually uses a lanthanide donor and a delayed reading to cut background.
Chain of NEDD8-conjugating enzyme Ubc12 (Homo sapiens) + NEDD8-activating enzyme E1 regulatory subunit (Homo sapiens) (P61081 whole entry, looked up): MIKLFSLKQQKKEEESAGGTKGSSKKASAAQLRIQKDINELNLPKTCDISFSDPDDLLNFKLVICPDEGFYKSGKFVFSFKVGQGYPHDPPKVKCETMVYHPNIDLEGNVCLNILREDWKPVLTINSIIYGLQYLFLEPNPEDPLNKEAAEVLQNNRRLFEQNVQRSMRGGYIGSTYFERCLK
Chain of NEDD8-conjugating enzyme Ubc12 (Homo sapiens) + NEDD8-activating enzyme E1 regulatory subunit (Homo sapiens) (Q13564 whole entry, looked up): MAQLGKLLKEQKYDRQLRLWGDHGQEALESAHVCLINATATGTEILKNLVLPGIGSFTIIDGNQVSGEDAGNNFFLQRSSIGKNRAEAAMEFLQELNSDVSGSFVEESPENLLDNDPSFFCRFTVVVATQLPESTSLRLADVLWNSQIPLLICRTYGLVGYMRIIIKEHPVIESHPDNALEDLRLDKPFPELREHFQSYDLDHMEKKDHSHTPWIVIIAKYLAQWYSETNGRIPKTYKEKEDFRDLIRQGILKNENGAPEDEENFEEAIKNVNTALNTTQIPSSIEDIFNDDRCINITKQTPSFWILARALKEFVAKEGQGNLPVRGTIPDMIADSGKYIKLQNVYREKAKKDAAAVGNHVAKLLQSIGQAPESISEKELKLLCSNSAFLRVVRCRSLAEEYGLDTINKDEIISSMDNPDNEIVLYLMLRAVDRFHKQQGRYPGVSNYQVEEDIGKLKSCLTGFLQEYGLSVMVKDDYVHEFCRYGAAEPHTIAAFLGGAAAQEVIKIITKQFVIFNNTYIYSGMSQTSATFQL
What is called IC50 is the point on the concentration scale where inhibition reaches its midpoint. In the case of `CC(=O)N1N=C2/C(=C/c3ccccc3)CCCC2C1c1ccccc1` (stereo not drawn), the IC50 result was “inactive”. In the case of `c1cnc2cc(-c3ccsc3)ncc2c1`, the IC50 entry was “inactive”. Turning to `CCOCCCn1c(=NC(=O)c2cccnc2)c(C(=O)OCC)cc2c(=O)n3ccccc3nc21`, the IC50 result is “inactive”. Next, `O=C(N/N=C/c1c(O)n(-c2ccccc2Cl)c(=O)c2ccccc12)C1COc2ccccc2O1` (stereo not drawn): “inactive”; `Cc1cc(-c2ccccc2)c2nncn2n1`: “inactive”; `CCOc1ccc2[nH]c(C(=O)N/N=C/c3cccc(OC)c3OC)cc2c1`: “inactive”. Regarding `CC(C)(C)c1ccc(/C=C2\CCn3c2nc2cc(C(=O)O)ccc2c3=O)cc1`, the IC50 entry was “inactive”. As to `COc1ccc(/C=C/c2ccc(=O)n(Cc3ccccc3)n2)cc1`, the IC50 was > 100 µM (inactive). With `CCCCc1c(O)n2c(nc3ccccc32)[nH]c1=O`, the IC50 entry is “inactive”.

Turning to `COc1ccc(C[C@H]2c3cc(O)c(OC)cc3CC[N+]2(C)[O-])cc1O` (stereo partly drawn), the IC50 result is “inactive”. With `CSc1cnc2c(=O)n(C)c(=O)[nH]c2n1`, the IC50 result was “inactive”. As for `Cc1cc(NS(=O)(=O)c2ccc(NC(=O)c3cc4c(=O)n5ccccc5nc4s3)cc2)nc(C)n1`, the IC50 is 18 µM. Under `COC(=O)C1=C(C)NC2=C(C(=O)C(C(=O)OC)C(c3ccc(OC)cc3)C2)C1c1ccccn1` (stereo not drawn) stands “inactive”. Take `COc1ccccc1/C=N/NC(=O)c1ccccc1NS(=O)(=O)c1ccc(C)cc1`: the IC50 result was “inactive”. Next, `Cc1cc(NC(=O)COC(=O)c2nccnc2N)n(-c2ccccc2)n1`: 13.2 µM. `COc1cc(OC)cc(-c2oc3cccnc3c2C#CCCO)c1`: the IC50 result is “inactive”. Regarding `CCC(=O)Nc1nnc(/C=C/c2ccccc2)s1`, the IC50 is > 100 µM (inactive). In the case of `CCN(CC)c1ccc(/C=N/NC(=O)Cc2ccc(OC)c(OC)c2)cc1`, the IC50 entry is “inactive”. For the compound `Cc1cccn2c(=O)c(C=NCc3ccccc3)c(NCCO)nc12`, the IC50 result was “inactive”. Consider `O=c1oc2ccccc2cc1-c1cn2cccnc2n1`, for which the IC50 result was “inactive”.

For `CCOc1ccc(NC(=O)COC(=O)c2ccc3ncsc3c2)cc1OCC`, the IC50 result is “inactive”.

Take `Cc1cc(NS(=O)(=O)c2ccc(NS(=O)(=O)c3ccc(Br)cc3)cc2)no1`: the IC50 result was “inactive”. For `COCc1cc(C)nc(NC2CC(C)(C)NC(C)(C)C2)c1C#N`, the IC50 entry is “inactive”. `CCCc1c(O)c2ccccc2[nH]c1=O`: the IC50 result was “inactive”. Next, `Cc1ccc2c(c1)COc1c3ccc(C(=O)NCCO)cc3nn1-2`: “inactive”. For `COc1cc(C=NNC(=O)c2ccc(NS(=O)(=O)c3cccs3)cc2)cc(Br)c1O`, the IC50 result is “inactive”. Take `C(=C\c1ccc2nncn2c1)/c1ccccc1`: the IC50 entry was “inactive”. On to `COC(=O)CSc1ccc2c(N)c(C(=O)OC)sc2c1`, for which the IC50 result is “inactive”. As to `Cc1cccn2c(=O)c3cc(C(=O)N4CCCCC4C)sc3nc12` (stereo not drawn), the IC50 result is “inactive”. Turning to `Nc1ncnc2c1ncn2[C@@H]1O[C@H](COP(=O)(O)O)[C@@H](O)[C@H]1O`, the IC50 result was “inactive”. On to `COC(=O)c1ccc(-c2ccc(/C=N/NC(=O)CC3(C)OCCCO3)o2)cc1`, for which the IC50 result was “inactive”. Turning to `Cn1nc(/C=C/c2ccccc2)ccc1=O`, the IC50 entry was “inactive”. As to `S=c1[nH]c2nc(Cl)c(Cl)nc2[nH]1`, the IC50 entry was “inactive”. Next, `O=C(N/N=C/c1cccnc1)c1ccc(CN2c3cccc4cccc(c34)S2(=O)=O)cc1`: “inactive”; `CCN(CC)c1ccc(/C=N/NC(=O)CC(C)C)cc1`: “inactive”. `O=C(Nc1cc(C(=O)Nc2ccccc2C(=O)O)cc(C(=O)Nc2ccccc2C(=O)O)c1)c1ccccc1`: the IC50 was > 100 µM (inactive).

Turning to `CCCCn1c(O)c(/C=N/NC(=O)c2ccncc2)c(=O)[nH]c1=S`, the IC50 result is “inactive”.

Turning to `CSc1ccc(/C=C2\CCn3c2nc2cc(C(=O)O)ccc2c3=O)cc1`, the half-maximal inhibitory concentration (IC50) is 19.4 µM. Turning to `NC(=O)C1CCN(C(=O)c2ccc3nc(-c4ccccc4)c(-c4ccccc4)nc3c2)CC1`, the IC50 result is “inactive”. On to `c1ccc(-c2oc3ncnc(NCCCN4CCOCC4)c3c2-c2ccccc2)cc1`, for which the IC50 entry is “inactive”. Consider `N=c1c(C(=O)NCCN2CCOCC2)cc2c(=O)n3ccccc3nc2n1Cc1ccc(F)cc1`, for which the IC50 is 16.5 µM. In the case of `CCN(CC)c1ccc(/C=N/NC(=O)C(O)c2ccccc2)cc1` (stereo not drawn), the IC50 result is “inactive”. On to `CC1CCN(C(=O)CN2c3cccc4cccc(c34)S2(=O)=O)CC1`, for which the IC50 entry is “inactive”. Take `NNC(=O)c1ccc(CSc2cccc3cccnc23)cc1`: the IC50 entry is “inactive”.

For `O=C(CSc1cccc2cccnc12)Nc1cc(C(=O)O)cc(C(=O)O)c1`, the IC50 result is “inactive”.

Regarding `Oc1ccc(Br)cc1C=Nc1ccc2c3c(cccc13)CC2`, the IC50 is 12.1 µM. For `O=C(O)c1ccc2c(=O)n3c(nc2c1)/C(=C/c1ccc(OC(F)F)cc1OC(F)F)CC3`, the IC50 result was “inactive”. Regarding `CC(=O)Nc1ccc(NC(=O)c2cc(-c3ccc(C)cc3O)n[nH]2)cc1`, the half-maximal inhibitory concentration (IC50) is 9.68 µM. With `O=C(CCc1ccccc1)Nc1nnc(-c2ccccn2)o1`, the IC50 result is “inactive”. Under `Nc1cccc2c(=O)[nH][nH]c(=O)c12` stands “inactive”; under `Cc1ccccc1NC(=O)NNC(=O)c1ccc2ccccc2c1O`, “inactive”; under `COc1ccc(Cl)cc1NC(=O)Cn1nnc(C(=O)NCc2ccc3c(c2)OCO3)c1N`, 10.4 µM.

In the case of `CN(C)c1ccc(/C=N/NC(=O)COc2ccccc2)cc1`, the IC50 result is “inactive”. Take `COc1ccc(CC(=O)N/N=C\c2cc(Br)c(O)c(Br)c2)cc1`: the IC50 result is “inactive”. As to `COc1ccc(C(=O)n2cc(C(=O)c3cc(C)ccc3O)cn2)cc1OC`, the IC50 entry is “inactive”.

For the compound `COc1ccc(-n2cc(CNCc3cnc4ccccn34)c(-c3cccc(F)c3)n2)cc1`, the IC50 result was “inactive”. On to `CN(C)c1ccc(/C=N/NC(=O)C2CC2c2ccccc2)cc1` (stereo not drawn), for which the IC50 entry was “inactive”.

With `Nc1c(C(=O)Nc2ccccc2)c2nc3ccccc3nc2n1CCCN1CCOCC1`, the IC50 result was “inactive”. On to `Cc1ccc(Cn2c(=N)c(C(=O)NCCN3CCOCC3)cc3c(=O)n4ccccc4nc32)cc1`, for which the half-maximal inhibitory concentration (IC50) is 17.5 µM.

With `Nc1ncnc2c1ncn2C1OC(COP(=O)(O)O)C(O)C1O` (stereo not drawn), the half-maximal inhibitory concentration (IC50) was 17.4 µM. Under `COc1ccc(-c2cn3cccnc3n2)cc1NC(=O)c1cccs1` stands “inactive”; under `c1cn2c(-c3ccoc3)cncc2n1`, “inactive”; under `CS(=O)(=O)c1ccc2nc(NC(=O)c3ccc(Cl)nc3)sc2c1`, 14 µM. Take `COc1ccccc1N(C(=O)c1snc(C(N)=O)c1N)C(C(=O)NC1CCCC1)c1ccco1` (stereo not drawn): the IC50 result is “inactive”. `N#Cc1ccc(/C=C2\CCn3c2nc2cc(C(=O)O)ccc2c3=O)cc1`: the IC50 was 14.5 µM. For the compound `CCCN(CC(=O)Nc1ccccc1C)C(=O)c1ccc(-c2ccc(C(C)=O)cc2)o1`, the IC50 was 14.7 µM. On to `Cc1cccn2c(=O)c3cc(C(=O)N4CCN(Cc5ccccc5)CC4)sc3nc12`, for which the IC50 was 17.9 µM. Next, `C=CCN1C(=O)C(CC(=O)O)S/C1=N/N=C/c1ccc(N(CC)CC)cc1` (stereo not drawn): “inactive”.

Consider `Cc1ccc(-c2cc(C(=O)NCCCN3CCOCC3)c3ccccc3n2)cc1`, for which the IC50 result is “inactive”. On to `O=C(Nc1cccnc1Cl)c1cc(-c2cccc(O)c2)on1`, for which the IC50 is 13.9 µM. Consider `CCOC(=O)Cn1nc(/C=C/c2ccccc2)ccc1=O`, for which the IC50 entry was “inactive”. For the compound `CSc1ccc(/C=N/n2nnnc2N)cc1`, the IC50 result was “inactive”.

On to `Cc1c(Cc2ccccc2)c(=O)oc2c(C)c(OCc3nn[nH]n3)ccc12`, for which the IC50 was > 100 µM (inactive).
